{"source": "patent US10357478B2", "about": "“Polyamide compound and pharmaceutical composition for treating mitochondrial genetic diseases” (Triplex Therapeutics Inc., priority 2011, dated 2019)", "key": {"[1]": {"tested_on": "2SD cybrid cells (MELAS cybrid cells)", "experiment": "Replication of wild-type mtDNAs in MELAS cybrid cells (PCR-RFLP)", "assay_type": "cell-based", "settings": "for increase level of wild-type mtDNAs in comparison with control: long-term (7, 15 or 35 days); for increase of wild-type mtDNAs: 35 days", "method": "The MLI polyamide was given to the cultivated MELAS cybrid cells to confirm if the wild-type mtDNAs were positively reproduced in cells.\n2SD cybrid cells were seeded on a 10 cm dish, and the MLI polyamide dissolved in 50% DMSO was added to the complete DMEM so that a final concentration thereof became 1 μM, 5 μM, or 10 μM. The medium to which the MLI polyamide was added was replaced every third day. In the control experiments, DMSO with the same diluted rate was added to the medium. The polyamide solution in 50% DMSO solution was diluted with ddH2O so that the concentration of DMSO in the medium became 0.1% or less, or 0.05% at a maximum.\nTotal DNAs were extracted from the cybrid cells treated by the MLI polyamide 14 days later, PCR-RFLP was then carried out, the bands were quantitatively analyzed by microchip electrophoresis (MCE-202 MultiNA; Shimadzu Corporation), and a mutation rate of the cybrid cells was analyzed.\nFurther, long-term effects were analyzed when the concentration of the MLI polyamide in the medium was 1 μM, 500 nM, or 100 nM. Total DNAs were extracted from the cybrid cells 7 days, 15 days, or 35 days later, PCR-RFLP was then carried out, electrophoresis was performed on 2% agarose gel (1×TAE), and an increase level of the wild-type mtDNAs was measured."}, "[2]": {"tested_on": "wild-type dsDNA (normal (wild-type) mtDNA template, 21 bases containing the 3243rd base)", "experiment": "EMSA (electrophoretic mobility shift assay), binding to wild-type oligo-DNA", "settings": "10^−4 M polyamide, 1 hour at 37° C.", "method": "(§1) In this Example, a binding specific to the base sequence was confirmed in vitro between the ML1 polyamide and the target. The assay was carried out in EMSA (electrophoretic mobility shift assay). The wild-type oligo-DNA with 21 bases containing the 3243rd base on which the A3243G mutation exists and the A3243G mutation oligo-DNA thereof were produced. A sense-stranded DNA with FITC bound at 5′-end and an antisense-stranded DNA were thermally denatured, slowly cooled, and annealed to obtain dsDNAs having the following sequence:\n(§2) To dsDNA (50 pmol/10 μL), 40 μL of ddH2O was added and the whole was diluted to 1 pmol/μL. 4 pmol of the resulting dsDNA were mixed with the MLI polyamide solution so that the concentration became 10^−4M, and incubated for 1 hour at 37° C. Then, the sample was mixed with a loading buffer and applied on 20% non-denatured acrylamide gel (0.5×TBE) which was pre-run for 10 minutes at 350 V. An electrophoresis was carried out at 4′C and 100 V until BPB reached ¾ of the lower end of the gel, and a shift of the band was detected by LAS-3000 (Fuji Film).\n(§3) The composition of the non-denatured acrylamide gel used in EMSA is shown as below: […]"}, "HeLa cells": {"tested_on": "HeLa cells", "experiment": "Cytotoxicity in DMEM without sodium pyruvate and uridine, HeLa cells", "assay_type": "cell-based", "settings": "1 μM, 30 hours or 1 week", "method": "(§4) 143B cells or HeLa cells were cultured in a medium prepared by adding 1 μM of ML1 polyamide to a 10% FBS-added DMEM (free of sodium pyruvate and uridine) wherein respiratory chain-defective cells are inviable. The synthesis of the respiratory chain proteins in mitochondria is essential to life-support, and only a slight dysfunction thereof results in cell death.\n(§5) 143B cells or HeLa cells were cultured for a week in normal DMEM, complete DMEM (containing 0.1 mg/mL of sodium pyruvate, and 50 μg/mL of uridine), complete DMEM with the ML1 polyamide, or DMEM with the ML1 polyamide, and survival or death was observed.\n(§6) In the culture of 143B cells, the MLI polyamide was added at the concentration of 100 nM, 500 nM, or 1 μM, whereas in the culture of Hela cells, the MLI polyamide was added at the concentration of 1 μM."}, "143B cells": {"tested_on": "143B cells", "experiment": "Cytotoxicity in DMEM without sodium pyruvate and uridine, 143B cells", "assay_type": "cell-based", "settings": "100 nM, 500 nM or 1 μM, 30 hours or 1 week", "method": "as §4, §5, §6"}, "[3]": {"tested_on": "A3243G mutant dsDNA (A3243G mutation mtDNA template)", "experiment": "EMSA (electrophoretic mobility shift assay), binding to A3243G mutation oligo-DNA", "settings": "10^−4 M polyamide, 1 hour at 37° C.", "method": "as §1, §2, §3"}, "[4]": {"settings": "1 μM, 14 days, PCR-RFLP, microchip electrophoresis"}, "[5]": {"settings": "5 μM, 14 days, PCR-RFLP, microchip electrophoresis"}}, "data": [{"smiles": "CC(=O)Nc1cc(C(=O)Nc2cc(C(=O)Nc3cc(C(=O)NCCC(=O)Nc4cn(C)c(C(=O)Nc5cc(C(=O)Nc6cc(C(=O)NCCCC(=O)Nc7cn(C)c(C(=O)Nc8cn(C)c(C(=O)Nc9cc(C(=O)NCCC(=O)Nc%10cn(C)c(C(=O)Nc%11cc(C(=O)Nc%12cn(C)c(C(=O)NCCC(=O)NCCCN(C)C)n%12)n(C)c%11)n%10)n(C)c9)n8)n7)n(C)c6)n(C)c5)n4)n(C)c3)n(C)c2)n(C)c1", "note": "[ML1 polyamide, Ac-Py-Py-Py-β-Im-Py-Py-γ-Im-Im-Py-β-Im-Py-Im-β-Dp]", "values": [{"measurement": "increase level of wild-type mtDNAs in comparison with control", "setting": "[1]; 100 nM, PCR-RFLP, agarose gel", "result": "grossly visible increase level"}, {"measurement": "increase level of wild-type mtDNA", "setting": "[1]; 500 nM, 15 days, agarose gel", "result": "significant increase level"}, {"measurement": "increase of wild-type mtDNAs", "setting": "[1]; 500 nM, agarose gel", "result": "continuous increase level"}, {"measurement": "increase of wild-type mtDNAs", "setting": "[1]; 500 nM, agarose gel, listed as MLI polyamide", "result": "continuous increase"}, {"measurement": "increase level of wild-type mtDNAs in comparison with control", "setting": "[1]; 500 nM, PCR-RFLP, agarose gel", "result": "grossly visible increase level"}, {"measurement": "increase level of wild-type mtDNA", "setting": "[1]; [4]", "result": "increase levels of wild-type mtDNA"}, {"measurement": "mutation rate of the cybrid cells", "setting": "[1]; [4]", "result": "decrease of the mutation rate"}, {"measurement": "increase level of wild-type mtDNA", "setting": "[1]; 1 μM, 14 days, PCR-RFLP, microchip electrophoresis, listed as MLI polyamide", "result": "concentration-dependent increase level"}, {"measurement": "increase level of wild-type mtDNAs in comparison with control", "setting": "[1]; 1 μM, PCR-RFLP, agarose gel", "result": "grossly visible increase level"}, {"measurement": "increase level of wild-type mtDNA", "setting": "[1]; [5]", "result": "increase levels of wild-type mtDNA"}, {"measurement": "mutation rate of the cybrid cells", "setting": "[1]; [5]", "result": "decrease of the mutation rate"}, {"measurement": "increase level of wild-type mtDNA", "setting": "[1]; 5 μM, 14 days, PCR-RFLP, microchip electrophoresis, listed as MLI polyamide", "result": "concentration-dependent increase level"}, {"measurement": "shift of the band of wild-type dsDNA in EMSA", "setting": "[2]", "result": "significantly shifted"}, {"measurement": "shift of the band of wild-type dsDNA in EMSA", "setting": "[2]; listed as MLI polyamide", "result": "clear shift of the band"}, {"measurement": "morphological changes or cell cytotoxicity", "setting": "HeLa cells", "result": "did not show any morphological changes or cell cytotoxicity"}, {"measurement": "morphological changes or cell cytotoxicity", "setting": "143B cells", "result": "did not show any morphological changes or cell cytotoxicity"}, {"measurement": "shift of the band of A3243G mutant dsDNA in EMSA", "setting": "[3]", "result": "no significant shift"}, {"measurement": "shift of the band of A3243G mutant dsDNA in EMSA", "setting": "[3]; listed as MLI polyamide", "result": "not clearly observed"}]}]}
